# Data from patent US20230405069A1, “METHODS OF TREATING AND […] CORONAVIRUS AND OTHER INDICATIONS, AND COMPOSITIONS FOR USE WITH SAME” (priority 2020, published 2023).
# Tested on: viral infection
# Experiment: Subjects with symptoms of viral infection treated with disclosed medicinal compositions (symptom improvement / recovery)
# Assay type: in vivo, human
# Conditions: Patient 6; one paracetamol/acetaminophen on Day 1 of symptoms
# Source text: The disclosed compositions are useful in reducing symptoms and/or eliminating viruses in persons suffering from a viral infection or believed to be suffering from a viral infection. Eliminating a virus or an infection from a subject, as used herein, may be referred to as ‘curing’ a subject, for example wherein a subject that has tested positive for the virus (by DNA, RNA, protein, and/or antibody analysis) has no detectable virus (by the same or a different method) after treatment. In these subjects, adults may be administered about 2 ml to about 150 ml per composition per day as a single dose or separated into multiple doses. In some embodiments the subject may be administered the disclosed compounds once, twice, three, or more times a day. In some embodiments, for example, an adult may be administered about 5 ml to about 150 ml of each medicinal composition each day. In many embodiments, (for example where the dose is 15 ml/day) 5 ml is administered 3 times per day as a 5 ml dose. In other embodiments, a 5 ml/day dose may also be divided into 3 or more smaller doses for administration throughout the day—for example about 2 ml three times per day. […]
structure (smiles),measurement,value
CC(=O)Nc1ccc(O)cc1 [paracetamol/acetaminophen],effect on symptoms,symptoms persisted
